Data taken from patent US6737383B1, “Herbicidal oxadiazolidines” (priority 1999, dated 2004).

What was measured:
pigweed = assay: Test B pre/postemergence pigweed; format: in vivo, Amaranthus retroflexus
How it was run: (§1)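 Herbicidal effect was estimated by eye on a ten-point control scale after plants spent twelve to sixteen days in a greenhouse following soil or foliar treatment. Foliar sprays targeted plants at one to four leaves; all doses were formulated in a non-phytotoxic solvent with surfactant.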

giant foxtail = assay: Test B pre/postemergence giant foxtail; format: in vivo, Setaria faberii
How it was run: as §1

rape = assay: Test B pre/postemergence rape; format: in vivo, Brassica napus
How it was run: as §1

wheat = assay: Test B pre/postemergence wheat; format: in vivo, Triticum aestivum
How it was run: as §1

surinam grass = assay: Test B pre/postemergence surinam grass; format: in vivo, Brachiaria decumbens
How it was run: as §1

corn = assay: Test B pre/postemergence corn; format: in vivo, Zea mays
How it was run: as §1

purple nutsedge = assay: Test B pre/postemergence purple nutsedge; format: in vivo, Cyperus rotundus
How it was run: as §1

crabgrass = assay: Test B pre/postemergence crabgrass; format: in vivo, Digitaria sanguinalis
How it was run: as §1

duck salad = assay: Test B flood test duck salad; format: in vivo, Heteranthera limosa
How it was run: (§2)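 Plants were grown to the 2-leaf stage before treatment with test chemical, then held in a greenhouse for twelve to sixteen days. Injury was visually rated against untreated controls on a 0–10 scale, where 0 is no effect and 10 is complete control.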

wild oat = assay: Test B pre/postemergence wild oat; format: in vivo, Avena fatua
How it was run: as §1

rice = assay: Test B flood test rice; format: in vivo, Oryza sativa
How it was run: as §2

bedstraw = assay: Test B pre/postemergence bedstraw; format: in vivo, Galium aparine
How it was run: as §1

soybean = assay: Test B pre/postemergence soybean; format: in vivo, Glycine max
How it was run: as §1

velvetleaf = assay: Test B pre/postemergence velvetleaf; format: in vivo, Abutilon theophrasti
How it was run: as §1

blackgrass = assay: Test B pre/postemergence blackgrass; format: in vivo, Alopecurus myosuroides
How it was run: as §1

morningglory = assay: Test B pre/postemergence morningglory; format: in vivo, Ipomoea hederacea
How it was run: as §1

[1] = Postemergence, Rate 62 g/ha, scale 0 to 10, 0 is no effect, 10 is complete control
[2] = Postemergence, Rate 250 g/ha, scale 0 to 10, 0 no effect, 10 complete control
[3] = Preemergence, Rate 62 g/ha, scale 0 to 10 (0 no effect, 10 complete control)
[4] = Preemergence, Rate 125 g/ha, scale 0 to 10 (0 no effect, 10 complete control)
[5] = Preemergence, Rate 250 g/ha, scale of 0 to 10 where 0 is no effect and 10 is complete control
[6] = Preemergence, Rate 500 g/ha, scale 0 (no effect) to 10 (complete control)
[7] = Rate 125 g/ha, Postemergence, scale 0 to 10, 0 no effect, 10 complete control
[8] = Rate 500 g/ha, Postemergence, scale 0 to 10, 0 no effect, 10 complete control
[9] = Rate 125 g/ha, Postemergence section (flood test species), scale 0 to 10, 0 no effect, 10 complete control
[10] = Rate 250 g/ha, headed Pre-emergence (flood test species), scale 0 to 10 (0 no effect, 10 complete control)
[11] = Rate 500 g/ha, headed Pre-emergence (flood test species), scale 0 to 10 (0 no effect, 10 complete control)
[12] = Rate 500 g/ha, listed under Postemergence (flood test species), scale 0 to 10, 0 no effect, 10 complete control
[13] = Rate 1000 g/ha, Pre-emergence (as headed), scale 0 to 10
[14] = Rate 2000 g/ha, Pre-emergence (as headed), scale 0 to 10
[15] = flood test, listed under Postemergence, Rate 250 g/ha, scale 0 to 10, 0 no effect, 10 complete control

CC(C)N(C(=O)n1oc(=O)n(Cc2cccs2)c1=O)c1ccc(F)cc1F [Compound 86]
Redroot pigweed plant response rating (pigweed; [1]): 0
Redroot pigweed plant response rating (pigweed; [2]): 5
Redroot pigweed plant response rating (pigweed; [3]): 2
Plant response rating, Redroot pigweed (pigweed; [4]): 4
Plant response rating, Redroot pigweed (pigweed; [5]): 8
Redroot pigweed plant response rating (pigweed; [6]): 8
Redroot pigweed plant response rating (pigweed; [7]): 0
Redroot pigweed plant response rating (pigweed; [8]): 7
Giant foxtail plant response rating (giant foxtail; [1]): 0
Giant foxtail plant response rating (giant foxtail; [2]): 3
Giant foxtail plant response rating (giant foxtail; [3]): 8
Plant response rating, Giant foxtail (giant foxtail; [4]): 9
Plant response rating, Giant foxtail (giant foxtail; [5]): 10
Giant foxtail plant response rating (giant foxtail; [6]): 10
Giant foxtail plant response rating (giant foxtail; [7]): 2
Giant foxtail plant response rating (giant foxtail; [8]): 5
Rape plant response rating (rape; [1]): 0
Rape plant response rating (rape; [2]): 2
Rape plant response rating (rape; [3]): 0
Plant response rating, Rape (rape; [4]): 0
Plant response rating, Rape (rape; [5]): 0
Rape plant response rating (rape; [6]): 4
Rape plant response rating (rape; [7]): 0
Rape plant response rating (rape; [8]): 4
Wheat plant response rating (wheat; [1]): 0
Wheat plant response rating (wheat; [2]): 0
Wheat plant response rating (wheat; [3]): 0
Plant response rating, Wheat (wheat; [4]): 0
Plant response rating, Wheat (wheat; [5]): 0
Wheat plant response rating (wheat; [6]): 0
Wheat plant response rating (wheat; [7]): 0
Wheat plant response rating (wheat; [8]): 0
B. signalgrass plant response rating (surinam grass; [1]): 0
B. signalgrass plant response rating (surinam grass; [2]): 0
B. signalgrass plant response rating (surinam grass; [3]): 0
Plant response rating, B. signalgrass (surinam grass; [4]): 2
Plant response rating, B. signalgrass (surinam grass; [5]): 4
B. signalgrass plant response rating (surinam grass; [6]): 7
B. signalgrass plant response rating (surinam grass; [7]): 0
B. signalgrass plant response rating (surinam grass; Rate 500 g/ha, Postemergence, scale of 0 to 10 where 0 is no effect and 10 is complete control): 0
Corn plant response rating (corn; [1]): 0
Corn plant response rating (corn; [2]): 00
Corn plant response rating (corn; [3]): 0
Plant response rating, Corn (corn; [4]): 0
Plant response rating, Corn (corn; [5]): 0
Corn plant response rating (corn; [6]): 0
Corn plant response rating (corn; [7]): 0
Corn plant response rating (corn; [8]): 0
Nutsedge plant response rating (purple nutsedge; [1]): 0
Nutsedge plant response rating (purple nutsedge; [2]): 0
Nutsedge plant response rating (purple nutsedge; [3]): 0
Plant response rating, Nutsedge (purple nutsedge; [4]): 0
Plant response rating, Nutsedge (purple nutsedge; [5]): 0
Nutsedge plant response rating (purple nutsedge; [6]): 0
Nutsedge plant response rating (purple nutsedge; [7]): 0
Nutsedge plant response rating (purple nutsedge; [8]): 0
Crabgrass plant response rating (crabgrass; [1]): 2
Crabgrass plant response rating (crabgrass; [2]): 5
Crabgrass plant response rating (crabgrass; [3]): 5
Plant response rating, Crabgrass (crabgrass; [4]): 8
Plant response rating, Crabgrass (crabgrass; [5]): 10
Crabgrass plant response rating (crabgrass; [6]): 10
Crabgrass plant response rating (crabgrass; [7]): 3
Crabgrass plant response rating (crabgrass; [8]): 9
Ducksalad plant response rating (duck salad; [1]): 0
Ducksalad plant response rating (duck salad; [9]): 0
Ducksalad plant response rating (duck salad; [10]): 0
Plant response rating, Ducksalad (duck salad; [11]): 0
Ducksalad plant response rating (duck salad; [12]): 0
Ducksalad plant response rating (duck salad; [13]): 0
Ducksalad plant response rating (duck salad; [14]): 0
Ducksalad plant response rating (duck salad; [15]): 0
Wild oats plant response rating (wild oat; [1]): 0
Wild oats plant response rating (wild oat; [2]): 0
Wild oats plant response rating (wild oat; [3]): 0
Plant response rating, Wild oats (wild oat; [4]): 0
Plant response rating, Wild oats (wild oat; [5]): 4
Wild oats plant response rating (wild oat; [6]): 5
Wild oats plant response rating (wild oat; [7]): 0
Wild oats plant response rating (wild oat; [8]): 0
Rice plant response rating (rice; [1]): 0
Rice plant response rating (rice; [9]): 0
Rice plant response rating (rice; [10]): 0
Plant response rating, Rice (rice; [11]): 0
Rice plant response rating (rice; [12]): 0
Rice plant response rating (rice; [13]): 0
Rice plant response rating (rice; [14]): 8
Rice plant response rating (rice; [15]): 0
Bedstraw plant response rating (bedstraw; [1]): 2
Bedstraw plant response rating (bedstraw; [2]): 6
Bedstraw plant response rating (bedstraw; [3]): 0
Plant response rating, Bedstraw (bedstraw; [4]): 0
Plant response rating, Bedstraw (bedstraw; [5]): 0
Bedstraw plant response rating (bedstraw; [6]): 0
Bedstraw plant response rating (bedstraw; [7]): 4
Bedstraw plant response rating (bedstraw; [8]): 8
Soybean plant response rating (soybean; [1]): 2
Soybean plant response rating (soybean; [2]): 2
Soybean plant response rating (soybean; [3]): 0
Plant response rating, Soybean (soybean; [4]): 0
Plant response rating, Soybean (soybean; [5]): 0
Soybean plant response rating (soybean; [6]): 0
Soybean plant response rating (soybean; [7]): 2
Soybean plant response rating (soybean; [8]): 3
Velvetleaf plant response rating (velvetleaf; [1]): 0
Velvetleaf plant response rating (velvetleaf; [2]): 0
Velvetleaf plant response rating (velvetleaf; [3]): 0
Plant response rating, Velvetleaf (velvetleaf; [4]): 0
Plant response rating, Velvetleaf (velvetleaf; [5]): 3
Velvetleaf plant response rating (velvetleaf; [6]): 5
Velvetleaf plant response rating (velvetleaf; [7]): 0
Velvetleaf plant response rating (velvetleaf; [8]): 2
Blackgrass plant response rating (blackgrass; [1]): 0
Blackgrass plant response rating (blackgrass; [2]): 1
Blackgrass plant response rating (blackgrass; [3]): 2
Plant response rating, Blackgrass (blackgrass; [4]): 3
Plant response rating, Blackgrass (blackgrass; [5]): 5
Blackgrass plant response rating (blackgrass; [6]): 8
Blackgrass plant response rating (blackgrass; [7]): 0
Blackgrass plant response rating (blackgrass; [8]): 3
Morningglory plant response rating (morningglory; [1]): 4
Morningglory plant response rating (morningglory; [2]): 7
Morningglory plant response rating (morningglory; [3]): 0
Plant response rating, Morningglory (morningglory; [4]): 0
Plant response rating, Morningglory (morningglory; [5]): 0
Morningglory plant response rating (morningglory; [6]): 0
Morningglory plant response rating (morningglory; [7]): 7
Morningglory plant response rating (morningglory; [8]): 8
